For the molecule `Cn1nnnc1Cc1ccc(NC(=O)/C=C/c2cnn(C)c2-c2ccc(F)cc2)cc1`, the melting point (in general, the temperature, or range, at which the solid turns liquid) lay in the range of 243 to 244 °C.

Take `CC(C)(C)NC(=O)c1nn(-c2ccccc2)c2c1C1CCC2C1` (stereo not drawn): the melting point fell in the range of 101 to 103 °C.

In the case of `NC(=O)Nc1c(C(=O)c2ccccc2)[nH]c2cc(Cl)ccc12`, the melting point was 196 to 200 °C.

Take `CC(C)c1ccc(NC(=O)OC(C)(C)C)c(C(=O)NCC2CCN(C(c3ccccc3)c3ccccc3)CC2)c1`: the melting point was 88 to 90 °C.

With `CC[C@H](C)[C@H](OCc1cccc(F)c1F)[C@H]1[C@H]([N+](=O)[O-])[C@H](c2ccccc2)N[C@@H]1C(=O)NCC(=O)O`, the melting point lay in the range of 137 to 138 °C.

On to `CCCc1c(OCCCOc2ccc3c(c2CCC)OC(CCC(=O)O)CC3)ccc(C(C)=O)c1O` (stereo not drawn), for which the melting point lay within 109 to 110 °C.

For `Cn1c(=O)c2c(nc3n(Cc4ccccc4)c(=O)cc(O)n23)n(C)c1=O`, the melting point lay within 206 to 209 °C.

On to `COc1ccc(-c2noc3ccsc23)cc1`, for which the melting point lay in the range of 93 to 94 °C.

`COc1ccc(-c2cc(F)c(F)cc2-c2ccc(S(C)(=O)=O)cc2)cc1C` showed a melting point of 160 to 162 °C.

On to `CSc1c([N+](=O)[O-])c2cc(Cl)ccc2[nH]c1=O`, for which the melting point came out at 213 °C.

`N[C@@H](Cc1ccccc1)C(=O)NC(=O)OCc1ccccc1` gave a melting point of 158 to 160 °C.

In turn, `O=S1(=O)NCNc2c(Cl)cc(Cl)cc21` gave a melting point of 149 to 151 °C.

In the case of `C=CCON=C(CC)C1=C(O)CC(c2c(C)c(C)c3c(c2C)CC(C)(C)C3)CC1=O` (stereo not drawn), the melting point lay within 63 to 65 °C.

The molecule `COc1cccc2c(=O)cc(N3CCOCC3)oc12` returned a melting point of 165 °C.

`Cc1cc(-n2cncn2)c2cccc(OCc3c(Cl)ccc(S(=O)(=O)N4CCC[C@H]4C(=O)NCC4CCN(Cc5ccccn5)CC4)c3Cl)c2n1` came in with a melting point of 118 °C.

Turning to `CCOC(=O)Cc1ccc(NC(=O)C(CCc2ccccc2)NS(=O)(=O)c2ccc(Br)cc2)cc1` (racemic), the melting point is 130 to 131 °C.

On to `O=C(Nc1ccccc1)c1ccc(O)c(Nc2ccccc2)c1`, for which the melting point fell in the range of 158 to 159 °C.

Turning to `O=C(CC1CCCCC1)Nc1c(Cl)ccc2nc(CCCCc3nnn[nH]3)ccc12`, the melting point is 192 to 195 °C.

With `COc1cc(OC)c(-c2cc3ccccc3n2C(=O)OC(C)(C)C)cc1/C=C/C(=O)c1ccc(C(=O)O)cc1`, the melting point is 182 to 183 °C.

`CCOC(=O)C1=C(C)NC(C)=C(C(=O)OCC)C1c1csc2ccc(Br)cc12` displayed a melting point of 68 to 70 °C.

Molecule `CCC1Cc2cc(OCC(=O)OC)c(Cl)c(Cl)c2C1=O` (stereo not drawn) had a melting point of 134 to 137 °C.

As for `CC(=O)N1Cc2nc(Cl)nc(Nc3ccc(F)c(Cl)c3)c2N=C1Cl`, the melting point was 178 °C.

As for `N#Cc1c(N2CCCCC2)cc(-c2cccc3ccccc23)c2c1C(=O)c1ccccc1-2`, the melting point was in the range of 202 to 204 °C.

The molecule `Cc1nc2c(-c3ccc(N4CCN(C)CC4)cc3)cnn2c(N)c1-c1ccc(F)c(Cl)c1` showed a melting point of 264 to 265 °C.

Turning to `CCCCCC(O)C1C(=O)NC2(C(O)C3C=CCCC3)C(=O)OC12C` (stereo not drawn), the melting point came out at 144 °C.

Regarding `ON=Cc1ccc(Cl)c(I)c1`, the melting point fell in the range of 97 to 99 °C.

For `C[C@@H](n1cnc2cc(F)ccc2c1=O)[C@](O)(Cn1cncn1)c1ccc(F)cc1F`, the melting point lay in the range of 106 to 107 °C.

In turn, `CCC#COc1ccc(S(=O)(=O)NC(CSc2ccccn2)C(=O)NO)cc1` (stereo not drawn) displayed a melting point of 115 to 120 °C.

Regarding `CC(C)(C)C(=O)Oc1ccc(C(O)c2ccc(OC(=O)C(C)(C)C)cc2)cc1`, the melting point lay within 148 to 152 °C.

For `CCCCn1cc(C(=O)OCC)c(NC(=O)Nc2ccccc2)n1`, the melting point lay in the range of 118 to 120 °C.

The molecule `COc1ccc(C(=O)Cc2ccc(OC)c(F)c2)cc1` returned a melting point of 117 to 118 °C.

The molecule `O=C(NCCCC1OCC(c2cccc3ccccc23)CO1)C(F)(F)F` (stereo not drawn) came in with a melting point of 83 to 84 °C.

In turn, `Nc1ncnn1C(=S)NCc1ccccc1` gave a melting point of 157 to 158 °C.

The record behind these values is a melting point compilation (Tetko et al.; mined from patent text by program, amines drawn as free bases though some values may be those of a salt).
